Source: US20200253929A1, “TREATMENT OF EPILEPSY” (priority 2017, published 2020)

Experiments:
CYP3A4 = biological target: T1, CYP3A4 (Homo sapiens, UniProt P08684); experiment: CYP450 enzyme inhibition assay, CYP3A4; assay type: in vitro ADME; settings: human liver microsomes; for IC50: testosterone probe
T1 construct: containing Human Liver Microsomes (HLM) (0.5 mg/mL); from tissue; host or cells: human liver microsomes
Description: Protocol was based on literature [Perez-Del Palacio et al. (2017) Front Pharmacol 8, 202]. Assessment of CYP450 inhibition was conducted in 96-well plate format at 37° C. Test compounds were dissolved in DMSO/acetonitrile (2 μL) and diluted in 98 μL NADPH solution (2 mM). Reactions were started by addition of 100 μL potassium phosphate buffer (200 mM, pH 7.4) containing Human Liver Microsomes (HLM) (0.5 mg/mL). Probe reactions for CYP3A4, CYP2D6 and CYP2C9 were conducted with 50 μM testosterone, 22 μM dextromethorphan and 10 μM diclofenac for 15 min. Reactions were terminated with the addition of a quench solution (90 μL) of acetonitrile containing internal standards for LC-MS/MS determination (60 ppb cortisone, 100 ppb 4′-hydroxydiclofenac 13C6, 60 ppb levallorphan).

Kinetic solubility assay = assay type: physicochemical; settings: for Kinetic solubility: 2 h incubation, absorbance 620 nm
Description: Protocol was based on literature [Perez et al. (2015) J Biomol Screen 20, 254-264]. The kinetic solubility assay was conducted in 96-well, flat-bottom, transparent polystyrene plates (Costar 9018, Corning, Tewksbury, Mass.). Six two-fold serial dilutions of an initial 10 mM test compound solution were prepared in DMSO. After a 2 h incubation period (to avoid missing slow precipitation) absorbance was measured at 620 nm by an EnVision multilabel plate reader. The kinetic solubility was estimated from the concentration of test compound that produced an increase in absorbance above the background levels (i.e. 1% DMSO in buffer).

[1] = system: PTZ-induced seizures in zebrafish larvae; experiment: Zebrafish PTZ seizure model, behavioral analysis; assay type: in vivo, Danio rerio; settings: for PTZ-induced seizures (seizure-like behavior): vs VHC+PTZ
Description: To investigate whether the isolated compounds display antiseizure activity, they were tested in the zebrafish PTZ seizure model after both an acute (2 hours) and chronic (18 hours) incubation time at their maximum tolerated concentration (MTC) (Table 1, FIG. 1).
In case no MTC was reached, 100 μg/mL was used as the test concentration. In line with studies previously reported [Baraban et al. (2005) Neurosci 131, 759-768; Afrikanova et al. (2013) PLoS One 8, e54166], addition of the GABAA-receptor antagonist PTZ to the swimming water of 7 days post-fertilization (dpf) zebrafish larvae strongly elevated larval locomotion (p≤0.001) (FIGS. 2 and 3) as a result of induced seizures (or seizure-like behavior) that were recognized as typical high-speed swimming, whirlpool-like circling, clonus-like seizures, and loss of posture, as previously described in Baraban et al cited above.
Experimental procedure was described in Afrikanova et al.(2013) PLoS One 8, e54166 and Orellana-Paucar et al. (2012) Epilepsy Behav 24, 14-22. In brief, a single 7 dpf larva (in case of 2 hours incubation) or 6 dpf larva (in case of 18 hours incubation) was placed in each well of a 96-well plate and treated with either VHC (1% DMSO) or compound (1% DMSO) in a 100 μL volume. Larvae were incubated in dark for 2 or 18 hours at 28° C., whereafter 100 μL of either VHC (embryo medium) or 40 mM PTZ (dissolved in embryo medium, 20 mM working concentration) was added to each well. Next, within 5 min the 96-well plate was placed in an automated tracking device (ZebraBox Viewpoint, France) and larval behavior was video recorded for 30 min. The complete procedure was performed in dark conditions using infrared light. Total locomotor activity was recorded by ZebraLab software (Viewpoint, France) and expressed in actinteg units, which is the sum of pixel changes detected during the defined time interval (5 min). Larval behavior was depicted as mean actinteg units/5 min during the 30 min recording period and over 5 min time intervals. Data are expressed as mean±SD or as mean ±SEM when the means of independent experiments were pooled.

[2] = system: PTZ-induced seizures in zebrafish larvae; experiment: Zebrafish PTZ seizure model, behavioral analysis; assay type: in vivo, Danio rerio; settings: lower concentrations (MTC/2, MTC/4), 2 hours incubation

T1 sequence (P08684 whole entry): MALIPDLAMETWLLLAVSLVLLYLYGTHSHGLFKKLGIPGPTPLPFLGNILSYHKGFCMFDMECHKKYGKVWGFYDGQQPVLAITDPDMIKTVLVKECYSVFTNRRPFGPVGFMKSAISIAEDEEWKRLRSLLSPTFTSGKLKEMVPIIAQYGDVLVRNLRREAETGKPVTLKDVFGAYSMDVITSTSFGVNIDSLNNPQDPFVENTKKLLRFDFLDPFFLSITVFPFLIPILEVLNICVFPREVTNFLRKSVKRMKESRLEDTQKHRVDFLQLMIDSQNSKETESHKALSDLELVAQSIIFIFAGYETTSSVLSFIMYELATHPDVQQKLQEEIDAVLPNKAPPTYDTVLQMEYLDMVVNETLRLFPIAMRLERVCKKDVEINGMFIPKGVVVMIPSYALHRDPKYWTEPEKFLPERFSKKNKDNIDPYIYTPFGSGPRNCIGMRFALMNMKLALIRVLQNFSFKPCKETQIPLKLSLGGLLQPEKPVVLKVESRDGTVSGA

CCc1ccc(C2=C(C)C(=O)C3(O2)C(=O)NC(OC)(C(=O)c2ccccc2)C3O)o1 (stereo not shown) [azaspirofuran A]
CYP3A4, effect (CYP3A4): No effect
IC50 (CYP3A4): > 88 µM
Kinetic solubility, rating (Kinetic solubility assay): Acceptable
Kinetic solubility (Kinetic solubility assay): >100 µM
PTZ-induced seizure behavior, concentration-response retest ([1]; at MTC, 2 hours incubation, 30 min recording, three independent experiments): lowered PTZ-induced seizure behavior to the same extent as before
PTZ-induced seizures (seizure-like behavior) ([1]; at MTC, 2 hours of compound exposure): significantly lowered PTZ-induced seizures
PTZ-induced seizure behavior, concentration-response retest [2]: No antiseizure activity

CC/C=C\[C@H](O)[C@H](O)C1=C(C)C(=O)[C@]2(O1)C(=O)N[C@](OC)(C(=O)c1ccccc1)[C@H]2O [pseurotin A2]
CYP3A4, effect (CYP3A4): No effect
IC50 (CYP3A4): > 88 µM
Kinetic solubility, rating (Kinetic solubility assay): Acceptable
Kinetic solubility (Kinetic solubility assay): >100 µM
PTZ-induced seizure behavior, concentration-response retest ([1]; MTC, MTC/2, MTC/4, optimal incubation time, 30 min recording and 5 min intervals): concentration-dependent activity
PTZ-induced seizures (seizure-like behavior) ([1]; at MTC, 18 hours of compound exposure): significantly lowered PTZ-induced seizures
